Assays:
Carbonic anhydrase 9 = Carbonic anhydrase 9 (Homo sapiens, UniProt Q16790); assay: Inhibition of recombinant human carbonic anhydrase 9 preincubated with enzyme for 15 mins by phenol red dye based stopped flow CO2 hydration assay
Carbonic anhydrase 7 = Carbonic anhydrase 7 (Homo sapiens, UniProt P43166); assay: Inhibition of recombinant human carbonic anhydrase 7 preincubated with enzyme for 15 mins by phenol red dye based stopped flow CO2 hydration assay
Carbonic anhydrase 2 = Carbonic anhydrase 2 (Homo sapiens, UniProt P00918); assay: Inhibition of recombinant human carbonic anhydrase 2 preincubated with enzyme for 15 mins by phenol red dye based stopped flow CO2 hydration assay
Carbonic anhydrase 1 = Carbonic anhydrase 1 (Homo sapiens, UniProt P00915); assay: Inhibition of recombinant human carbonic anhydrase 1 preincubated with enzyme for 15 mins by phenol red dye based stopped flow CO2 hydration assay
Carbonic anhydrase 1, sequence (P00915 whole entry): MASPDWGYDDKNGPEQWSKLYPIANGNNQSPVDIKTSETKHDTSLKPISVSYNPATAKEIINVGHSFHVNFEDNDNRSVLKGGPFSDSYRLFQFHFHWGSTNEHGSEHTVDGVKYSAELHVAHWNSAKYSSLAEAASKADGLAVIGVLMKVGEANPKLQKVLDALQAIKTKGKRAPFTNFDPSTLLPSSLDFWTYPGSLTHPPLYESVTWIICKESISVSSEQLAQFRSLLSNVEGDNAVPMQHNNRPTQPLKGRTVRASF

Carbonic anhydrase 12 = Carbonic anhydrase 12 (Homo sapiens, UniProt O43570); assay: Inhibition of recombinant human carbonic anhydrase 12 preincubated with enzyme for 15 mins by phenol red dye based stopped flow CO2 hydration assay
Carbonic anhydrase 12, sequence (O43570 whole entry): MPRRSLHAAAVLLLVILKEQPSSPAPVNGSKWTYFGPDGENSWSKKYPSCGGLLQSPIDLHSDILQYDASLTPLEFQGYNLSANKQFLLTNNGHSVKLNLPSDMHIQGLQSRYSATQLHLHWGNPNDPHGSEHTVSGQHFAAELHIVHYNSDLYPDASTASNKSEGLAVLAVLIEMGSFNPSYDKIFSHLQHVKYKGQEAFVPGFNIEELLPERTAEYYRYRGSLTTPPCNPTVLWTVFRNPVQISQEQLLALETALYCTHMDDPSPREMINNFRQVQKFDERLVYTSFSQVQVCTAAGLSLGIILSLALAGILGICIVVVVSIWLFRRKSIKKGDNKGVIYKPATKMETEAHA

Carbonic anhydrase 7, sequence (P43166 whole entry): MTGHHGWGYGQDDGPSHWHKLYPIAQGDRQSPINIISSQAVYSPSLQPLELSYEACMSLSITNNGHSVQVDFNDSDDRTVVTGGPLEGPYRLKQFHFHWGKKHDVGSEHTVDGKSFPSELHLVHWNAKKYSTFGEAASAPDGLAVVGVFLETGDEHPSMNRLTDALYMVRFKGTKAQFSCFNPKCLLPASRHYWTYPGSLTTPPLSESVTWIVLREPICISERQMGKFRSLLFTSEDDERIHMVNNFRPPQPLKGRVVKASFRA

Row | Compound | Ki (Carbonic anhydrase 9) | Ki (Carbonic anhydrase 7) | Ki (Carbonic anhydrase 2) | Ki (Carbonic anhydrase 1) | Ki (Carbonic anhydrase 12)
1 | CC1(C)O[C@H]2[C@H](O)CN(CCCCCCn3cc(CNc4ccc(S(N)(=O)=O)cc4)nn3)C[C@H]2O1 | 2980 nM | 7.4 nM | 80.3 nM | 2880 nM | 541 nM
2 | CC1(C)O[C@H]2[C@H](O)[C@H]([C@H]3[C@H](O)[C@H]4OC[C@@H](O4)[C@H]3O)N(CCCCCCn3cc(CNc4ccc(S(N)(=O)=O)cc4)nn3)C[C@H]2O1 | 35.9 nM | 31.2 nM | 801 nM | 956 nM | 770 nM
